Measured values published in US20080004253A1, “Thiazolopyrimidine modulators of TRPV1” (priority 2006, published 2008).

Columns and labels:
human TRPV1 = target: T1, human TRPV1 (Homo sapiens, UniProt Q8NER1); assay: Functional assay: block of capsaicin-induced Ca2+ influx, human assay (hTRPV1/HEK293, FLIPR); type: cell-based; settings: hTRPV1/HEK293 cells, 150 nM capsaicin challenge, Fluo-3 fluorescence; mean; > value = solubility limit in assay medium
T1 construct: expressed in transfected cells; host or cells: HEK293 (hTRPV1/HEK293), zeocin selection
T1 sequence (Q8NER1 whole entry): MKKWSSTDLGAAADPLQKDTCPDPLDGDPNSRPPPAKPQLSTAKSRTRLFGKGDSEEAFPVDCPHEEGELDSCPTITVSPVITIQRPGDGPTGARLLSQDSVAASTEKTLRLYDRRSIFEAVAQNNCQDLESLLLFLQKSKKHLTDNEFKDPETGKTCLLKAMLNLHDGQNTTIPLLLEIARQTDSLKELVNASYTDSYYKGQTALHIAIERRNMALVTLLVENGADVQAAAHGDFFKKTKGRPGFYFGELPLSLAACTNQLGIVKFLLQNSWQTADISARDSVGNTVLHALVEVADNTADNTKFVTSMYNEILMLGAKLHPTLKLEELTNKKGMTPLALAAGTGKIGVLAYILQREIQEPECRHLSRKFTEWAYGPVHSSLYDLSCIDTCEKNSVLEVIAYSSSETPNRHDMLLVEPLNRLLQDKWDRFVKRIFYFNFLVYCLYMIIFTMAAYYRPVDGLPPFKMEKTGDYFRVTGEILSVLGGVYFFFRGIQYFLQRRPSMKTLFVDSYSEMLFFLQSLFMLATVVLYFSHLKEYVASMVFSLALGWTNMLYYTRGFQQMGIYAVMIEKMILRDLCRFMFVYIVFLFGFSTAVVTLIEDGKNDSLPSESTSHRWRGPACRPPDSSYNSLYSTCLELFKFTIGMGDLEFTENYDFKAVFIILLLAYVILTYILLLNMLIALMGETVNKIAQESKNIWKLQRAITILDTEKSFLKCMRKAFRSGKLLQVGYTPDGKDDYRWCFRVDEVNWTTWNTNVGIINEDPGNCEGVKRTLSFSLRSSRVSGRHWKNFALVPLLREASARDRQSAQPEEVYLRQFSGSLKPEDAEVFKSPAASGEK
In short: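 HEK293 cells stably expressing human TRPV1, fluo3-loaded, preincubated 30 min with compound (serial 3-fold dilutions from 10 μM, duplicate) in 20 μM Ca2+ buffer. Capsaicin response taken as fluo3 fluorescence change before vs 100 s after agonist; IC50 by non-linear regression, mean values; free base or TFA salt.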

rat TRPV1 = target: T2, rat TRPV1 (Rattus norvegicus, UniProt O35433); assay: Functional assay: block of capsaicin-induced Ca2+ influx, rat assay (rTRPV1/HEK293, FLIPR); type: cell-based; settings: rTRPV1/HEK293 cells, capsaicin challenge, Fluo-3 fluorescence; mean; > value = solubility limit in assay medium
T2 construct: expressed in transfected cells; host or cells: HEK293 (rTRPV1/HEK293), geneticin selection
T2 sequence (O35433 whole entry): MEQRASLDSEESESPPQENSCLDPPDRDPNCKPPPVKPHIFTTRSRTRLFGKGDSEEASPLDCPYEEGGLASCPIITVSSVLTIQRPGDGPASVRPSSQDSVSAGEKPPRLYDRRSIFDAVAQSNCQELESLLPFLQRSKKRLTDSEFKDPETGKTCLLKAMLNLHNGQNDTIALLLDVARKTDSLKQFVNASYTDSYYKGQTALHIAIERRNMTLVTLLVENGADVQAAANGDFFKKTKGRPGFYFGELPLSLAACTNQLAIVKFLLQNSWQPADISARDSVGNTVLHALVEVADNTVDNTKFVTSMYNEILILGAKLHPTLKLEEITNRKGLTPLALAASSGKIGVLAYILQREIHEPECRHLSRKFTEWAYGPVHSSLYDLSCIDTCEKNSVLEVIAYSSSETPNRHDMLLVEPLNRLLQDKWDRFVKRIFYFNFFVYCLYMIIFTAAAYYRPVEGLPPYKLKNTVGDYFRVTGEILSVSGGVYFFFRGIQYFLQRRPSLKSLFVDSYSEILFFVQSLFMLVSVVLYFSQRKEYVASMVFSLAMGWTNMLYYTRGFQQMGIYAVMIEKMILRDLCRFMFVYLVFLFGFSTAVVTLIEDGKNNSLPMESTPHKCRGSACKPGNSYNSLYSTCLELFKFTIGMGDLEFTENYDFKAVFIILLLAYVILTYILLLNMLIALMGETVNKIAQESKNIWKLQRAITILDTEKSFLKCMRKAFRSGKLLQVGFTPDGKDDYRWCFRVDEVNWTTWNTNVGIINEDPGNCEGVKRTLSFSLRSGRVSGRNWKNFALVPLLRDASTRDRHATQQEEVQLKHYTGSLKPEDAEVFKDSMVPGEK
In short: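 Compounds, as free base or TFA salt, tested from 10 μM in three-fold steps on rTRPV1-transfected HEK293 cells, with 30 min preincubation in low-calcium (20 μM) buffer. Capsaicin-evoked Ca2+ influx measured by FLIPR fluo3 signal before and 100 s after addition. Averaged IC50 from non-linear fits.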

| SMILES | IC50 (human TRPV1) [µM] | IC50 (rat TRPV1) [µM] |
| --- | --- | --- |
| CCc1ccc(Nc2ncnc3sc(Nc4c(C)cccc4C)nc23)cc1 [Example 45, N^2-(2,6-Dimethyl-phenyl)-N^7-(4-ethyl-phenyl)-thiazolo[5,4-d]pyrimidine-2,7-diamine] | 0.07 | 0.037 |
| Cc1noc(C)c1Nc1nc2c(Nc3ccc(C(F)(F)F)cc3)ncnc2s1 [Example 25, N^2-(3,5-Dimethyl-isoxazol-4-yl)-N^7-(4-trifluoromethyl-phenyl)-thiazolo[5,4-d]pyrimidine-2,7-diamine] | 0.421 | 0.068 |
| Cc1cccc(C)c1Nc1nc2c(Nc3ccc(Cl)nc3)ncnc2s1 [Example 119, N^7-(6-Chloro-pyridin-3-yl)-N^2-(2,6-dimethyl-phenyl)-thiazolo[5,4-d]pyrimidine-2,7-diamine] | 0.056 | 0.051 |
| CC(C)(C)c1ccc(Nc2ncnc3sc(Nc4c(Cl)cccc4Cl)nc23)cc1 [Example 3, N^7-(4-tert-Butyl-phenyl)-N^2-(2,6-dichloro-phenyl)-thiazolo[5,4-d]pyrimidine-2,7-diamine] | 0.014 | 0.001 |
| Cc1nc(Nc2ccc(C(F)(F)F)cc2)c2nc(Nc3c(Cl)cccc3Cl)sc2n1 [Example 5, N^2-(2,6-Dichloro-phenyl)-5-methyl-N^7-(4-trifluoromethyl-phenyl)-thiazolo[5,4-d]pyrimidine-2,7-diamine] | 0.003 | 0.002 |
| COc1ccc(Nc2ncnc3sc(Nc4c(C)cccc4C)nc23)cc1 [Example 33, N^2-(2,6-Dimethyl-phenyl)-N^7-(4-methoxy-phenyl)-thiazolo[5,4-d]pyrimidine-2,7-diamine] | 0.205 | 0.07 |
| FC(F)(F)c1ccc(Nc2nc(N3CCC3)nc3sc(Nc4c(Cl)cccc4Cl)nc23)cc1 [Example 59, 5-Azetidin-1-yl-N^2-(2,6-dichloro-phenyl)-N^7-(4-trifluoromethyl-phenyl)-thiazolo[5,4-d]pyrimidine-2,7-diamine] | 0.063 | 0.022 |
| Cc1nc(Nc2ccc(C#N)cc2)c2nc(Nc3c(Cl)cccc3Cl)sc2n1 [Example 96, 4-[2-(2,6-Dichloro-phenylamino)-5-methyl-thiazolo[5,4-d]pyrimidin-7-ylamino]-benzonitrile] | 0.012 | 0.009 |
| Cc1nc(Nc2ccc(S(=O)(=O)C(F)(F)F)cc2)c2nc(Nc3c(Cl)cccc3Cl)sc2n1 [Example 77, N^2-(2,6-Dichloro-phenyl)-5-methyl-N^7-(4-trifluoromethanesulfonyl-phenyl)-thiazolo[5,4-d]pyrimidine-2,7-diamine] | 0.001 | 0.002 |
| COc1cc(CNc2ncnc3sc(Nc4c(C)cccc4C)nc23)ccc1O [Example 38, 4-{[2-(2,6-Dimethyl-phenylamino)-thiazolo[5,4-d]pyrimidin-7-ylamino]-methyl}-2-methoxy-phenol] | > 20 | 7.13 |

Other lines, results leading:

| IC50 (human TRPV1) [µM] | IC50 (rat TRPV1) [µM] | SMILES |
| --- | --- | --- |
| 5.95 | 5.14 | FC(F)(F)c1ccc(Nc2nc(N3CCNCC3)nc3sc(Nc4c(Cl)cccc4Cl)nc23)cc1 [Example 163, N^2-(2,6-Dichloro-phenyl)-5-piperazin-1-yl-N^7-(4-trifluoromethyl-phenyl)-thiazolo[5,4-d]pyrimidine-2,7-diamine] |
| > 2.22 | 1.46 | Cc1cc(C(F)(F)F)ccc1Nc1ncnc2sc(Nc3c(C)cccc3C)nc12 [Example 159, N^2-(2,6-Dimethyl-phenyl)-N^7-(2-methyl-4-trifluoromethyl-phenyl)-thiazolo[5,4-d]pyrimidine-2,7-diamine] |
| > 6.67 | > 6.67 | COc1ccc(Nc2ncnc3sc(Nc4c(C)cccc4C)nc23)cc1C(F)(F)F [Example 168, N^2-(2,6-Dimethyl-phenyl)-N^7-(4-methoxy-3-trifluoromethyl-phenyl)-thiazolo[5,4-d]pyrimidine-2,7-diamine] |
| 4.37 | 1.01 | Cc1nc(NC2CCC(C(C)(C)C)CC2)c2nc(Nc3c(C)cccc3C)sc2n1 (mixture of isomers) [Example 249, N^7-(4-tert-Butyl-cyclohexyl)-N^2-(2,6-dimethyl-phenyl)-5-methyl-thiazolo[5,4-d]pyrimidine-2,7-diamine] |
| 0.324 | 0.185 | Cc1cccc(C)c1Nc1nc2c(Nc3ccc(C(C)O)cc3)ncnc2s1 (racemic) [Example 140, (racemic)-1-{4-[2-(2,6-Dimethyl-phenylamino)-thiazolo[5,4-d]pyrimidin-7-ylamino]-phenyl}-ethanol] |
